The test relates to NCI-H358. The test is described as follows: CellTiter-Glo cell proliferation inhibition, NCI-H358. It is filed as cell-based. Conditions: Homo sapiens; NCI-H358 (lung cancer cell line), 2D, 72 hours; read-out: Example IC50 (µM) NCI-H358(2D). An excerpt:
This experiment used the CellTiter-Glo® Luminescent Cell Viability Assay kit from Promega to evaluate the inhibitory activity of the disclosed compounds on the proliferation of the following cell lines: 4T1 (mouse breast cancer cell line), A20 (mouse B-cell lymphoma cell line), A2780 (human ovarian cancer cell line), AsPC-1 (pancreatic cancer cell line), B16F10 (mouse melanoma cell line), BT549 (human breast cancer cell line), CT26 (mouse colon cancer cell line), EMT6 (mouse breast cancer cell line), HCT116 (colorectal cancer cell line), Jurket (acute leukemia cell line), KP-4 (pancreatic cancer cell line), LL/2 (mouse lung cancer cell line), MCF7 (breast cancer cell line), […] NCI-H358 (lung cancer cell line), NCI-H727 (gastric cancer cell line), NCI-1944 (lung cancer cell line), Pan 04.03 (pancreatic cancer cell line), SK-BR-3 (breast cancer cell line), THP-1 (leukemia cell line), TOV21G (ovarian cancer cell line), U87MG (glioblastoma cell line), and UM-UC-a (bladder cancer cell line).
All cell lines were purchased from Nanjing Kebai Biotechnology Co., Ltd. The following materials were also used in the experiment: RPMI-1640 media (HyClone, catalog number #SH30022.01), McCoy's 5A media (Thermo Fisher, catalog number #16600-082), MCDB 105 media (Sigma, catalog number #117-500), Medium 199 (Thermo Fisher, catalog number #11150-059), MEM media (Thermo Fisher, catalog number #11095-080), DMEM media (HyClone, catalog number #SH30027.01), fetal bovine serum (FBS) (ExCell, catalog number # M4530), Sodium Pyruvate (100Mm) (Thermo Fisher, catalog number #11360-070), and MEM NEAA (100X) (Thermo Fisher). […]
Cells were cultured according to the instructions provided by the cell supplier (Nanjing Kebai Biotechnology Co., Ltd.). […] Suspension or adherent cells were collected, and cell viability was determined using the trypan blue exclusion method, ensuring that cell viability was above 90%. […]
Regarding `O=C(Nc1ccc(-c2csc(CO)c2)cc1)C(=O)Nc1ccc(-c2cc3cc(F)c(-c4nnn[nH]4)cc3n2C2CCC2)cc1` [Example 1], the concentration for half-maximal inhibition (IC50) (usually the concentration at which inhibition is half-maximal) was found to be 0.074 µM.

Regarding `CC1(n2c(-c3ccc(NC(=O)C(=O)Nc4ccc(N5CCC6(CCOC6)CC5)cc4)cc3)cc3cc(F)c(-c4nnn[nH]4)cc32)CCC1` [Example 68], the concentration for half-maximal inhibition (IC50) came to 0.072 µM.

For the compound `O=C(Nc1ccc(-c2cc3cc(F)c(-c4nnn[nH]4)cc3n2C2CCC2)cc1)C(=O)Nc1ccc(N2CCC3(CCC(O)C3)CC2)cc1` (stereo not drawn) [Example 100], the half-inhibitory concentration (IC50) was determined as 0.063 µM.

Source of the values: patent EP4741383A1, “COMPOUND AND USE THEREOF AS ANTI-CANCER DRUG” (Tyligand Bioscience (Shanghai) Limited, priority 2023, dated 2025).
